“Also recorded” adds a separate entry of the source. Positions of bridges follow the written chain, without caps; N, C: chain ends. Chains are numbered I, II in the order given. No end group written: not given here.
How the values were obtained:
[1] = system: washed human sperm; assay: Sperm motility assay; type: cell-based; conditions: 10 and 100 ng/ml
Text: Materials And Methods. Semen is obtained by masturbation from healthy volunteers. The sample is allowed to liquefy at room temperature and is then mixed with Minimum Essential Medium (MEM) with Hepes buffer added. This medium is used because it coincides with that washing medium employed by the in vitro clinic at MUSC. The sperm is then separated from the seminal fluid and MEM by centrifugation. The resultant sperm pellet is then resuspended in MEM at room temperature. Aliquots are then place in siliconized centrifuge tubes and one of several compounds added: l)human relaxin 10 ng/ml, 2)human relaxin 100 ng/ml, 3)relaxin-like factor 10 ng/ml, 4)relaxin-like factor 100 ng/ml, 5)one fraction of alkaline gland fluid from stingrays diluted 1:8 with pentoxyfyline. The additive is mixed well with the sperm/medium mixture. Samples are taken at 0, 2, 4, 6 and 24 hour intervals for automated determination of the following parameters: 1)motility, 2)progressivity, 3)path velocity, 4)progressive velocity, 5)track speed, 6)elongation, 7)lateral displacement, 8)cross beat frequency, 9)straightness, 10)linearity. Briefly described, each sample is loaded into a Maker heated specimen chamber and viewed in a light microscope equipped with laser doppler optics (IVOS, Beverly, Mass.).

[2] = system: symphysis pubis of ovariectomized estrogen-primed female mice; assay: Mouse symphysis pubis (interpubic ligament) assay; type: in vivo
Method: Mouse interpubic ligament assays were performed essentially as described by Steinetz, et al., 1960, Endocrinology 67:102-115. Ovariectomized virgin female mice were printed with 5 μg estrogen cypionate in 100 μl sesame oil. Five days later the mice were injected subcutaneously with human relaxin, RLF, or mixtures of human relaxin and RLF in 100 μl of 0.1% benzopurpurin 4B. Specifically, groups of five animals received either human relaxin at a suboptimal dose or a mixture of 0.2 μg, 0.4 μg and 0.8 μg human relaxin and 5 μg of RLF as given in FIG. 8. For negative control 100 μl of 0.1% benzopurpurin 4B in water were injected. After 16 hours the mice were killed in an atmosphere of CO2, the symphysis pubis dissected free, and the distance between the interpubic bones measured with a dissecting microscope fitted with transilluminating fiber optics.

[3] = biological target: T1, insulin receptor (Homo sapiens, UniProt P06213); assay: Insulin-receptor binding assay on crude membrane preparations of term placenta; conditions: term placenta crude membranes; 125I-iodo-TyrA14 porcine insulin tracer
T1 construct: crude membrane preparations of term placenta; from tissue; host or cells: term placenta, crude membranes
Method: Insulin-receptor binding assays were performed on crude membrane preparations of term placenta, as described in Hock and Hollenberg, 1980, J. Biol. Chem. 255:10731-10736, using ^125I-iodo-Tyr^A14 porcine insulin as tracer according to the method of Linde, et al., 1986, J. Chromatogr. 369:327-339.
The assays were performed in HMS-buffer (25 mM HEPES, 104 mM NaCl, 5 mM MgCl2, 0.2% bovine serum albumin; pH 7.4) in a total volume of 100 μl. Labeled insulin (50,000 cpm/assay, 150 pM) and variable amounts of insulin were incubated with crude membranes for 1 h at room temperature. Thereafter 1 ml of buffer was added, the membranes collected by centrifugation in a microcentrifuge at 14,000 rpm for 5 min, the supernatant discarded, and the tip of the Eppendorf vial cut off and counted in a γ-counter (Minigamma, LKB, Sweden). To determine nonspecific binding unlabeled insulin was used at a concentration of 2 μl/ml (0.33 μM) and nonspecific binding was usually below 10% of the total binding.

[4] = system: mouse brain relaxin receptor; assay: Relaxin-binding assay, mouse brain crude membranes, porcine relaxin tracer
Method: Relaxin-binding assays were performed as described in Yang, et al., 1992, Endocrinology 130:179-185 and Büllesbach, et al., 1994, Endocrine. 2:1115-1120, using crude membrane preparations of mouse tissue. Mouse brains of 2 mice were collected into 15 ml of chilled buffer (25 mM HEPES, 0.14 M NaCl, 5.7 mM KCI, 0.2 mM phenylmethylsulfonyl-fluoride, and 80 mg/ml soybean trypsin inhibitor, pH 7.5) supplemented with sucrose (0.25 M, final concentration). The tissue was homogenized on ice for 10 s with a Polytron homogenizer (Brinlmann, Westbury, N.Y.) at setting 5. The homogenate was centrifuged at 700 rpm for 10 min at 4° C. and the supernatants were recentrifuged at 10,000×g for 1 h. The pellet was resuspended in 15 ml of ice cold binding buffer, 25 mM HEPES, 0.14 M NaCl, 5.7 mM KCI, 0.2 mM phenylmethylsulfonylfluoride, and 80 mg/ml soybean trypsin inhibitor, pH 7.5, supplemented with 1% bovine serum albumin, and centrifuged for 1 h at 10,000×g. The crude membrane preparation was suspended in 1 ml of binding buffer and 40 μl was used per assay. The assay was performed using 40 μl of tracer (about 100,000 cpm of porcine relaxin tracer=150 pM) and 20 μl of relaxin at various concentrations. The assay was incubated for 1 h at room temperature, and the suspension diluted with 1 ml of wash buffer (25 mM HEPES, 0.14 M NaCl, 5.7 mM KCI, 1% bovine serum albumin, 0.01% NaN3) and centrifuged in Eppendorf centrifuge at 14,000 rpm for 10 min. The supernatant was discarded, the tip of the vial cut and counted in a γ-counter. Nonspecific binding was determined in the presence of 2 μl/ml of unlabeled competitor (0.33 μM). In a typical experiment the specific binding was between 25% and 40% of the total binding.

[5] = system: fibronectin expression, rheumatoid synovial fibroblasts; assay: Inhibition of fibronectin expression by synovial fibroblasts; type: cell-based, human; conditions: 100 ng/ml; TGF-β-treated fibroblasts
Text: The method for detecting and measuring collagen formation in the presence of relaxin described in Unemori and Amento, 1990, J. Biol. Chem. 265:10681-685 has been modified as follows to determine the ability of RLF, in vitro, to modulate the expression of fibronectin.
Materials And Methods. Specifically, using the method described in section 6.7.1., the fibronectin band was identified by size (220 kDa), bacterial collagenase-resistance, and positive staining using commercially available polyclonal anti-fibronectin antibody (Promega). The fibronectin band was scanned densitometrically to estimate levels of expression.

RLF: synthesized human relaxin-like factor, two-chain peptide (A and B chain, SEQ ID NOS:3 and 4), three disulfide links (alpha AAATNPARYCCLSGCTQQDLLTLCPY; beta PTPEMREKLCGHHFVRALVRVCGGPRWSTEA; disulfide I:11-II:10; also: two further disulfide bonds, places not given here)
potency in maintaining sperm motility relative to relaxin [1]: as potent in maintaining sperm motility at both doses as was relaxin | effect on sperm motility compared to untreated controls ([1]; 0-24 h): preserve the motility | effect on the activity of human relaxin in the mouse bioassay ([2]; 0.2, 0.4, 0.8 μg human relaxin with 5 μg RLF): significantly increased the activity of human relaxin | optimal RLF amount for relaxin enhancement ([2]; in the presence of 0.5 μg of human relaxin): 5 µg | effect of RLF on the relaxin effect at maximal dose ([2]; maximal dose of both): still augmented | symphyseal widening, RLF alone ([2]; subcutaneous, 16 hours): no effect; also recorded: does not cause symphyseal widening | binding to the insulin receptor [3]: does not bind with any significant degree | crossreactivity with the brain relaxin receptor ([4]; mouse brain): moderate crossreactivity | excess that displaces 50% of the relaxin tracer ([4]; mouse brain relaxin receptor preparation): hundred-fold | 50% Binding ([4]; mouse brain, tracer pRLX): 200 ng | decrease of TGF-β-stimulated fibronectin expression [5]: 17%

Reference: patent publication US6949506B2, “Relaxin-like factor and methods and uses thereof” (BAS Medical, Inc., priority 1995, dated 2005)
